Data reported in publication PMC11847324, “A communication hub for phosphoregulation of kinetochore-microtubule attachment” (Current biology : CB, 2024).

Columns and labels:
Ndc80c^dwarf [1] = test: Fluorescence polarization competition, reporter Bodipy-FL Mps1(137–171); format: binding, S. cerevisiae
From the text: We measured by fluorescence polarization the affinity of Ndc80^dwarf, a shortened version of Ndc80c[51], for a peptide comprising Mps1 residues 137–171, plus a C-terminal cysteine for labeling. We labeled the peptide with the Bodipy fluorophore and determined fluorescence anisotropy as a function of Ndc80c^dwarf concentration (Figure 3A). We then used unlabeled wild-type and mutant peptides in a competition format, at a fixed Ndc80c^dwarf concentration (Figures 3B,C). The mutant peptides corresponded to mutations characterized in one of the accompanying papers. […] Mutating either the basic residues or the hydrophobic residues in the first part of the consensus motif or the conserved arginine at the end of the second part lowered affinity (raised the Ki) by roughly two logs; mutating both the final arginine and the hydrophobic residues eliminated any detectable competition.
(§1) Figure 3. Fluorescence polarization measurements of Ndc80c^dwarf binding peptides from the N-terminal extensions of Mps1 and Ipl1. (A) Polarization of fluorescence from 20 nM Bodipy-FL Mps1(137–171) (Mps1 residues 137–171 plus a C-terminal cysteine modified with Bodipy-FL -- see Methods) and Bodipy-FL Ipl1 (26–39;45–59) as a function of Ndc80c^dwarf concentration. (B) Competition binding experiment: unlabeled competitor peptides (see figure annotation) were added in twofold serial dilutions to Bodipy-FL Mps1(137–171) and Ndc80c^dwarf at final concentrations of 20 nM and 500 nM respectively. Loss of polarization indicates displacement of bound Bodipy-FL Mps1(137–171) by the competitor. (C) As in (B), with competitor Mps1(137–171) peptides containing mutations that reduce affinity for Ndc80c[40]. (D) Polarization of fluorescence from 20 nM Bodipy-FL Mps1(137–171) as a function of the concentration of Ndc80c^dwarf bearing mutations in Nuf2 that interfere with its Mps1 interaction in cells. (E) As in (B), but with 20 nM Bodipy-FL Ipl1 (26–39;45–59) as the fluorescent reporter and 27μM Ndc80c^dwarf. […] For the Ipl1 peptide, the second copy of the motif, not used for the fluorescence polarization experiments, is shown in the bottom line.
Mps1 (137–171), Ipl1 (26–39;45–59), and Dam1 (254–270;290–305) peptides with added C-terminal cysteines, were synthesized by the Tufts University Core Facility. […] Fluorescence polarization was measured at 25°C with an Envision plate reader (Perkin Elmer) equipped with a filter set optimized for fluorescence polarization of FITC, which has the same absorption and emission spectra as those of Bodipy FL. […] Fluorescence polarization was measured in triplicate. […] An equal volume of a buffer-matched solution containing 40 nM Bodipy-FL labelled peptide and 1 μM Ndc80c^dwarf was added to each of the dilutions, and fluorescence polarization was measured in triplicate. […]

Ndc80c^dwarf [2] = test: Fluorescence polarization competition, reporter Bodipy-FL Ipl1 (26–39;45–59); format: binding, S. cerevisiae; settings: 20 nM Bodipy-FL Ipl1 (26–39;45–59), 27μM Ndc80c^dwarf; competitor in twofold serial dilutions; 25°C; Figure 3E
Procedure: as §1, with “(B) Competition binding experiment: unlabeled competitor peptides (see figure annotation) were added in twofold serial dilutions to Bodipy-FL Mps1(137–171) and Ndc80c^dwarf at final concentrations of 20 nM and 500 nM respectively.” left out, “cells.” for “cells. (E) As in (B), but with 20 nM Bodipy-FL Ipl1 (26–39;45–59) as the fluorescent reporter and 27μM Ndc80c^dwarf.”
We measured the Ipl1 peptide affinity, both directly (Figure 3A) and by measuring displacement of a fluorophore-labeled Mps1 peptide (Figure 3B) as a function of increasing concentrations of unlabeled Ipl1 peptide. […]
Mps1 (137–171), Ipl1 (26–39;45–59), and Dam1 (254–270;290–305) peptides with added C-terminal cysteines, were synthesized by the Tufts University Core Facility. […] Fluorescence polarization was measured in triplicate. […]

Sequence of Ndc80c^dwarf (P33895 1-150): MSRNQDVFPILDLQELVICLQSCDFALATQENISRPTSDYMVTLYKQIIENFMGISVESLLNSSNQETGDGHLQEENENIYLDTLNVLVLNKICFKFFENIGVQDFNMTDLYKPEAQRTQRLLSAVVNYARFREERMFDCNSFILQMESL
Sequence of Ndc80c^dwarf (P40460 115-310, further chain): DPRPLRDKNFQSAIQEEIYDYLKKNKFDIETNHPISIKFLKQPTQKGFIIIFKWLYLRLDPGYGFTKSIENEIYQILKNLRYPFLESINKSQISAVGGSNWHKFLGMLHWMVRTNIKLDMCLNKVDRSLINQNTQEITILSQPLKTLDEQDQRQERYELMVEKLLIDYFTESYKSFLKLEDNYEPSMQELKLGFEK

RQNMKEDITAKYAERRSKRFLISNRTTKLGPAKRAC [Mps1 (137–171), peptide comprising Mps1 residues 137–171, plus a C-terminal cysteine for labeling]
displacement of bound Bodipy-FL Mps1(137–171) by unlabeled competitor peptide (Ndc80c^dwarf [1]; 20 nM Bodipy-FL Mps1(137–171), 500 nM Ndc80c^dwarf, competitor in twofold serial dilutions, 20 mM Tris pH 7.2, 100 mM NaCl, 2 mM TCEP, 25°C, triplicate, Figures 3B,C): displaced the fluorescent Mps1 peptide, at a concentration consistent with the affinity measured by direct titration
relative affinity of peptides for Ndc80c^dwarf (comparison in words) (Ndc80c^dwarf [1]; direct titration (Figure 3A) and competition with Bodipy-FL Mps1(137–171) (Figure 3B)): nearly the same
displacement of Bodipy-FL Ipl1 (26–39;45–59) by unlabeled competitor peptide (Ndc80c^dwarf [2]): competed strongly
